The source of these data is publication PMC11876671, “Investigating blood–brain barrier penetration and neurotoxicity of natural products for central nervous system drug development” (Scientific Reports, 2025).

Where two headings read alike, the source gives them in different places.

The subject of data set [1] is GFP-labeled iPSC-derived human cortical glutamatergic neurons. Description: cells. In kind it is cell-based. Conditions: for inhibition of cortical neurite outgrowth (total neurite length): 24 and 48 h treatment, in words.
Data set [2] has as its system human glial and neuroblastoma cell lines. Conditions: malignant glioma tumor cells; cited from earlier work.
Data set [3] has as its system GFP-labeled iPSC-derived human cortical glutamatergic neurons. The note with it: for effect on number of objects: in words.
The nature of a further data set: in vitro. Conditions: PAMPA, PAMPA-BBB Pe.
Data set [4] has as its system glioblastoma multiforme (GBM). The note with it: mouse, in vivo, ip; cited from earlier work.
Data set [5] relates to GFP-labeled iPSC-derived human cortical glutamatergic neurons. The experiment in a line: cells. The note with it: Neuron, 48 h, read-out: Viability AC50 (48 h).
In the next data set the test system is offspring neurogenesis. Conditions: rat, in vivo, po; cited from earlier work.
Where [6] appears, read: Homo sapiens, Neuron, rounded values, read-out: AC50 (neurite outgrowth inhibition).
Setting [7] is: Homo sapiens, Neuron, total neurite length, 48 h treatment, read-out: TNL AC50 (48 h).
Setting [8] is: Table S1, 60 min, room temperature, 0.05 mM.
Where [9] appears, read: Table 1, 60 min, room temperature, 0.05 mM.
The mark [10] stands for this setting: Table S2: compounds exhibiting moderate to high PAMPA-BBB permeability.

Regarding `C/C=C(\C)C(=O)N[C@@H](c1ccccc1)[C@@H](O)C(=O)O[C@H]1C[C@@]2(O)[C@@H](OC(=O)c3ccccc3)[C@@H]3[C@]4(OC(C)=O)CO[C@@H]4C[C@H](O)[C@@]3(C)C(=O)[C@H](OC(C)=O)C(=C1C)C2(C)C` [Cephalomannine], the values for the AC50 in data set [1] (setting [6]) and in data set [1] (setting [7]) were 700 nM and 688 nM, respectively. In data set [2], the “cytotoxicity relative to taxol (less cytotoxic)” value is ~ 35%. Further, the “Viability AC50 (48 h)” value in data set [3] (48 h treatment) is “inactive”. Further, in “in vitro” (setting [8]), the apparent permeability coefficient (Papp) (as a rule, a coefficient for how fast a substance crosses the barrier) was found to be 78.6 ×10⁻⁶ cm/s. The “PAMPA-BBB Pe” value by setting is: under setting [9], 78.57 10 × 10^− 6 cm/sec; under setting [10], 79 10^-6 cm/sec.
With `CC(=O)O[C@H]1[C@H]2O[C@]23[C@@H]2CC[C@@H]4C[C@@H](O)CC[C@]4(C)[C@H]2CC[C@]3(C)[C@H]1c1ccc(=O)oc1` [Cinobufagin], the AC50 (commonly the midpoint of the concentration-response curve, whichever way the signal moves) came to 618 nM in data set [1] (Homo sapiens, Neuron, 48 h, read-out: TNL AC50 (48 h)); 600 nM in data set [1] (Homo sapiens, Neuron, read-out: AC50 (neurite outgrowth inhibition)); 93 nM in data set [5]. Further, the Papp in “in vitro” was determined as 45.4 ×10⁻⁶ cm/s. The “decrease in luminescence intensity of the brain tumor” value in data set [4] was 70%.
On to `O=c1oc2c(O)c(O)cc3c(=O)oc4c(O)c(O)cc1c4c23` [Ellagic acid], for which the “inhibition of cortical neurite outgrowth (total neurite length)” value in data set [1] was “inhibited cortical neurite outgrowth”. Besides, the AC50 in data set [1] (setting [6]) is 3100 nM; in data set [1] (setting [7]) it was 3050 nM; in data set [5] it was 4000 nM. Besides, the “effect on number of objects” value in data set [3] (48 h treatment) is listed as “minimal effects”. For the same compound, in “in vitro” (setting [8]), the Papp turned out to be 120 ×10⁻⁶ cm/s. Moreover, the “PAMPA-BBB Pe” value is, setting by setting: under setting [9], 119.5 10 × 10^− 6 cm/sec; under setting [10], 120 10^-6 cm/sec.
As to `COc1cc(/C=C/C(=O)N2CCC=CC2=O)cc(OC)c1OC` [Piperlongumine], the half-maximal activity concentration (AC50) in data set [1] (setting [7]) amounted to 3740 nM. Also, in data set [3] (48 h treatment), the “Viability AC50 (48 h)” value is reported as “Inactive”. Further, the Papp in the data set “in vitro” (setting [8]) was 90.3 ×10⁻⁶ cm/s; in the data set “in vitro” (setting [10]), 90 ×10⁻⁶ cm/s. Also, the “PAMPA-BBB Pe” value under setting [9] is reported as 90.26 10 × 10^− 6 cm/sec.
For the compound `CC1=CC(=O)c2c(O)cccc2C1=O` [Plumbagin], in data set [1], the “inhibition of cortical neurite outgrowth (total neurite length)” value is given as “inhibited cortical neurite outgrowth”. The AC50 in data set [1] (setting [6]) amounted to 900 nM; in data set [1] (setting [7]) it was 927 nM; in data set [5] it was 1320 nM. Further, in data set [3] (48 h treatment), the “effect on number of objects” value was “minimal effects”. This compound yielded an apparent permeability coefficient (Papp) in the data set “in vitro” (setting [8]) of 68.8 ×10⁻⁶ cm/s. Also, the “PAMPA-BBB Pe” value was 68.8 10 × 10^− 6 cm/sec under setting [9] and 69 10^-6 cm/sec under setting [10].
Turning to `COc1cc2c(c3oc4cccc(O)c4c(=O)c13)[C@@H]1C=CO[C@@H]1O2` [Sterigmatocystin], the AC50 was found to be 2300 nM in data set [1] (read-out: AC50 (neurite outgrowth inhibition)), 2320 nM in data set [1] (read-out: TNL AC50 (48 h)) and 2320 nM in data set [1] (read-out: TNL AC50 (48 hr)). Moreover, the “Viability AC50 (48 h)” value in data set [3] is “inactive”. In the data set “in vitro”, this compound displayed an apparent permeability (Papp) of 221 ×10⁻⁶ cm/s. For the same compound, the “PAMPA-BBB Pe” value (PAMPA) is reported as 221 10 × 10^− 6 cm/sec. Besides, in the data set with offspring neurogenesis, the “adverse effects on offspring neurogenesis” value is on record as “no adverse effects”.
